Data set [1] relates to E. coli TOP10 cells. Nature of the data set: Time-kill assay. It counts as cell-based, Escherichia coli. The method, then:
An overnight culture of E. coli TOP10 cells was diluted 1:10,000 in MHB and incubated at 37 °C with agitation at 180 rpm for 2 h (early exponential). The bacteria were then challenged with brevicidine (20 μg mL^−1), laterocidine (20 μg mL^−1), or polymyxin B (10 μg mL^−1) at ten times the MIC at room temperature without shaking. An untreated sample of cells was used as a negative control. At intervals, 10 μL aliquots were removed, centrifuged at 10,000 × g for 1 min and resuspended in 1.0 mL of sterile PBS. Tenfold serially diluted suspensions were plated on MHB agar plates and incubated at 37 °C overnight. Colonies were counted and the number of c.f.u. per mL was calculated. For analysis of lysis, 300 μL of culture (OD600 = 1.0) were treated with antibiotics at ten times the MIC for 24 h. Experiments were performed in triplicate.

Data set [2] has as its system K. pneumoniae NRRL-B-3521. It counts as cell-based, Klebsiella pneumoniae. The following applies: NRRL-B-3521, 24 h. The method, then: (§1) MIC was determined by broth microdilution according to CLSI guidelines. The test medium for most species was Mueller–Hinton broth (MHB). Bacteria were grown overnight to early stationary phase and adjusted in MHB to 5.0 × 10^5 c.f.u. mL^−1 in the wells of 96-well microtiter plates (Falcon® 96-Well Flat-Bottom Microplate, Tissue Culture-Treated), mixed with varying concentrations of test compounds and incubated at 37 °C for 24 h. Cell growth was evaluated by measuring the optical density at 595 nm (Thermo Scientific Multiskan FC multiplate photometer) (Waltham, MA, USA), and the MIC was defined as the lowest compound concentration at which no bacterial growth was observed. MHBs containing 10% fetal bovine serum (Gibco), 21 mM MgCl, or 1.0 mg mL^−1 LPS (lipopolysaccharides from E. coli O55:B5, Sigma-Aldrich) was used to test their inhibitory effects.

The test system of data set [3] is Human HeLa cells. Conditions: concentrations up to 128 μg mL^−1, 48 h, 37 °C, MTT, absorbance 570 nm.
Procedure: Human HeLa cells were used in the assay. Ninety μL of 1 × 10^5 mL^−1 cells were placed into the wells of 96-microwell plates. After 12 h, 10 μL of a medium containing test compounds at various concentrations were added to the cells which were then incubated at 37 °C for 48 h. Afterward, the supernatant was removed and 20 μL of MTT (3-(4,5-Dimethylthiazol-2-yl)-2,5-Diphenyltetrazolium Bromide) (2.5 mg mL^−1) in PBS were added to each well. After incubation at 37 °C for 3 h, 80 μL of dimethyl sulfoxide (DMSO) were added to each well and incubated for an additional 15 min. The absorbance was then measured at 570 nm with a Thermo Scientific Multiskan FC multiplate photometer.
Data set [4] relates to E. coli ATCC 25922. The following applies: 10^8 c.f.u. plated on Mueller–Hinton agar at four times the MIC, 48 h, 37 °C. As to the method: E. coli ATCC 25922 was inoculated into MHB overnight at 37 °C with continuous shaking. Cells were diluted 10,000 times in MHB to about 1 × 10^6 c.f.u. mL^−1. Ten µL aliquots were drawn to a 96-well plate containing 90 µL of serially diluted brevicidine, laterocidine, and ciprofloxacin, at final concentrations of 0.5×, 1×, 1.5×, 2×, and 4× MIC. […] Plates with bacteria were incubated at 37 °C without shaking. […] This process was repeated for 30 days, and the final MIC was confirmed by the same antibacterial assay as the one described above. The experiment was performed in quadruplicate, and on each day, the sample that developed the highest resistance was measured to plot the curve. For single-step resistance, E. coli ATCC 25922 cells at 10^8 c.f.u. were plated onto Mueller–Hinton agar containing 4× MIC of brevicidine.

Data set [5] relates to Pseudomonas aeruginosa PAO1. It counts as cell-based. The following applies: Supplementary Table 1; Pa = Pseudomonas aeruginosa PAO1. The method, then: as §1
Data set [6] relates to Gram-negative bacteria. It counts as cell-based. The method, then:
as §1

The subject of data set [7] is Staphylococcus aureus (MRSA). It counts as cell-based. Conditions: 24 h. The method, then:
as §1

Data set [8] has as its system E. coli TOP10 cells. Nature of the data set: Bacterial growth kinetics. It counts as cell-based, Escherichia coli. Conditions: OD600 of cells exposed to antibiotics (Fig. 4: two times the MIC). The method, then: A single fresh colony of E. coli TOP10 cells was inoculated into MHB (5 mL) and grown with shaking at 225 rpm overnight. The bacteria were diluted to 1 × 10^5 c.f.u. mL^−1 in fresh MHB, grown […] to early log-phase (OD600 = 0.15) and treated with the antibiotics of interest in the wells of a 96-well plate. Final antibiotic concentrations varied from one to eight times the MIC. The plate was then incubated at 30 °C overnight, with OD600 measurements taken every 30 s.

Data set [9] concerns Enterobacter cloacae NRRL-B-413. Briefly: MIC by broth microdilution. It counts as cell-based. Conditions: Supplementary Table 1; En = Enterobacter cloacae NRRL-B-413. As to the method: as §1
For orientation: Broth dilution looks for growth in wells or tubes with falling amounts of substance.

Data set [10] relates to Klebsiella pneumoniae NRRL-B-408. Briefly: MIC by broth microdilution. It counts as cell-based. Conditions: Supplementary Table 1; Kp = Klebsiella pneumoniae NRRL-B-408. As to the method:
as §1

For data set [11], the system named is Acinetobacter baumannii. Briefly: MIC by broth microdilution. Conditions: Supplementary Table 1. It counts as cell-based. As to the method: as §1
Data set [12] concerns Bacillus subtilis 168. Briefly: MIC by broth microdilution. It counts as cell-based. The following applies: Supplementary Table 1; Bs = B. subtilis 168. As to the method: as §1
The subject of data set [13] is Escherichia coli ATCC 25922. Nature of the data set: microbe, parasite or virus in culture. It counts as cell-based. Conditions: Supplementary Table 1; Ec = Escherichia coli ATCC 25922. As to the method:
as §1

≈ marks a conversion by molar mass, not a printed value. Read-outs that look alike come from different tables or passages of the source. Where a SMILES comes first, the peptide text is derived from it. Bridges are numbered along the chain shown (N, C = ends). [ ]: non-standard residue; d: D form. The star is where a group is joined. ξ: configuration not given here. Hexanoyl(4ξ-Me) = CCC(C)CCC(=O)*; dOrn = NCCC[C@@H](N)C(=O)O; Orn = NCCC[C@H](N)C(=O)O

`CCC(C)CCC(=O)N[C@H](CC(N)=O)C(=O)N[C@H](Cc1ccc(O)cc1)C(=O)N[C@H](Cc1c[nH]c2ccccc12)C(=O)N[C@H](CCCN)C(=O)N[C@@H](CCCN)C(=O)NCC(=O)N[C@H](CCCN)C(=O)N[C@@H](Cc1c[nH]c2ccccc12)C(=O)N[C@@H]1C(=O)N[C@@H]([C@@H](C)CC)C(=O)NCC(=O)N[C@@H](CO)C(=O)O[C@@H]1C` (stereo partly shown) [Compound 1, brevicidine] ({Hexanoyl(4ξ-Me)}-[dN][dY][dW][dOrn][Orn]G[dOrn]WTIGS; ester 9-C): in data set [1] (as revealed by growth kinetics, time-kill assay and lysis assay), the “bactericidal action against E. coli” value was “bactericidal”. Also, the “cell viability in time-kill assay” value in [1] (ten times the MIC, early exponential cells, room temperature, c.f.u. counts, triplicate) is reported as “significant reduction after 30 min”. Also, the MIC in data set [2] is 4 µg/mL (≈ 2.63 µM); in data set [7] it was more than 64 µg/mL. The “toxicity against the human cell line HeLa” value in [3] was “nor showed significant toxicity”. The results for the single-step resistance result in [4] and in data set [4] (listed as brevicidine) were “did not develop resistance” and “no resistant colonies were detected”, respectively. Moreover, the “MIC, Pa” value in data set [5] was 1 µg/mL (≈ 0.658 µM). Moreover, the “MIC values against Gram-negative bacteria” value in [6] (24 h) lay in the range of 0.66 to 10.5 µM; in data set [6] (range over Gram-negative strains incl. P. aeruginosa and colistin-resistant E. coli), 1 to 16 µg/mL. The “growth kinetics of E. coli cells exposed to compound” value in data set [8] was “grew at a reduced rate for 30 min”. In data set [9], the “MIC, En” value was 2 µg/mL (≈ 1.32 µM). For the same molecule, the “MIC, Kp” value in data set [10] was found to be 2 µg/mL (≈ 1.32 µM). For the same molecule, the “MIC, Ab” value in [11] was 16 µg/mL (≈ 10.5 µM). The “MIC, Bs” value in data set [12] turned out to be 32 µg/mL (≈ 21.1 µM). Further, the “MIC, Ec” value in [13] amounted to 2 µg/mL (≈ 1.32 µM).

As usually defined, the MIC is the lowest concentration that inhibits growth of the organism. Lower therefore signals greater potency.

(Values after PMC6095874, “Discovery of cationic nonribosomal peptides as Gram-negative antibiotics through global genome mining” (Nature Communications, 2018).)
